Measurements as given in patent US7652020B2, “Compounds for the treatment of inflammatory disorders” (Schering Corporation, priority 2004, dated 2010).

Molecular target: T1, purified catalytic domain of recombinant human TACE (rhTACEc) (Homo sapiens, UniProt P78536, N452Q/S266A)
T1 construct: Residue 215 to 477 with two mutation (S266A and N452Q) and a 6×His tail; 6xHis (C); made in house; host or cells: baculovirus/Hi5 insect cells
Assay: TACE kinetic assay: cleavage of internally quenched peptide substrate SPDL-3, fluorescence
Format: biochemical
Conditions: TACE inhibitory activity, class symbols; read-out: Ki

T1 sequence (P78536 215-477 S266A/N452Q): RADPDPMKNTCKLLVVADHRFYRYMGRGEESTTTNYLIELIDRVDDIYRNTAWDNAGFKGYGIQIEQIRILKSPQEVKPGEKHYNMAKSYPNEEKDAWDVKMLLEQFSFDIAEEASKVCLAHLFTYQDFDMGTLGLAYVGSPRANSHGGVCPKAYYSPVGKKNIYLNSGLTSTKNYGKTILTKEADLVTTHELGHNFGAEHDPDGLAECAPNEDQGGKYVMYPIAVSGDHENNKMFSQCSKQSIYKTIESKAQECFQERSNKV

Row | Structure (SMILES) | Ki
1 | CCNc1nc([C@@H]2c3ccccc3CN2C(=O)[C@H](O)[C@@H](O)C(=O)N[C@H](C)c2ccc(-n3cccn3)cc2)cs1 [Compound 2595] | < 20 nM
2 | C[C@@H](NC(=O)[C@H](O)[C@@H](O)C(=O)N1CCC[C@@H]1c1cc[nH]n1)c1ccc(-n2cccn2)cc1 [Compound 2247] | < 20 nM
3 | C[C@@H](NC(=O)[C@H](O)[C@@H](O)C(=O)N1CCn2ccnc2C1)c1ccc(-n2cccn2)cc1 [Compound 2082] | 100 to 1000 nM
4 | Cc1nc2c(s1)CN(C(=O)[C@H](O)[C@@](C)(O)C(=O)N[C@H](C)c1ccc(-n3cccn3)cc1)C2 [Compound 2057] | < 20 nM
5 | C[C@@H](NC(=O)[C@H](O)[C@@H](O)C(=O)N1CCc2cccnc2C1)c1ccc(-n2cccn2)cc1 [Compound 2083] | 20 to 100 nM
6 | CCNc1nnc([C@H]2c3ccccc3CN2C(=O)[C@H](O)[C@@H](O)C(=O)N[C@H](C)c2ccc(-n3cccn3)cc2)o1 (stereo in doubt) [Compound 2527] | < 20 nM
7 | CO[C@@H](C(=O)NCc1ccc(-c2ccc(F)cc2OCCC(C)(C)C)cc1)[C@@H](O)C(=O)N1Cc2cccnc2C1 [Compound 2475] | 20 to 100 nM
8 | CCOc1cc(F)ccc1-c1ccc(CNC(=O)[C@H](OC)[C@@H](O)C(=O)N2Cc3cccnc3C2)cc1 [Compound 2477] | 100 to 1000 nM
9 | CCOC(=O)c1cccn2cc([C@H]3CCCN3C(=O)[C@H](O)[C@@H](O)C(=O)N[C@H](C)c3ccc(-n4cccn4)cc3)nc12 [Compound 2508] | 20 to 100 nM
10 | C[C@@H](NC(=O)[C@H](O)[C@@H](O)C(=O)N1CCC[C@@H]1c1cn2ccccc2n1)c1ccc(-n2cccn2)cc1 [Compound 2507] | < 20 nM
11 | O=C(NCc1ccc(-c2ccc(F)cc2OCC(F)(F)F)cc1)[C@H](O)[C@@H](O)C(=O)N1CCCC1 [Compound 2337] | 20 to 100 nM
12 | COc1cc2c(cc1OC)C(c1ccccc1)N(C(=O)[C@H](O)[C@@H](O)C(=O)N[C@H](C)c1ccc(-n3cccn3)cc1)CC2 (stereo partly shown) [Compound 2442] | < 20 nM
13 | N#Cc1cc(F)ccc1N1CCC(CNC(=O)[C@H](O)[C@@H](O)c2ccccn2)CC1 [Compound 2382] | > 1000 nM
14 | Cc1ncc2c(n1)CN(C(=O)[C@H](O)[C@@H](O)C(=O)N[C@H](C)c1ccc(-n3cccn3)cc1)C2 [Compound 2045] | 100 to 1000 nM
15 | C[C@@H](NC(=O)[C@H](O)[C@@H](O)C(=O)N1CCc2cc(Cl)ccc2C1c1ccccc1)c1ccc(-n2cccn2)cc1 (stereo partly shown) [Compound 2444] | < 20 nM
16 | C[C@@H](NC(=O)[C@H](O)[C@@H](O)C(=O)N(C)C1Cc2ccccc2C1)c1ccc(-n2cccn2)cc1 [Compound 2489] | 20 to 100 nM
17 | C[C@@H](NC(=O)[C@H](O)[C@@H](O)C(=O)N1CC2CC1CN2c1ccc(Cl)cc1)c1ccc(-n2cccn2)cc1 (stereo partly shown) [Compound 2099] | 100 to 1000 nM
18 | CC(=O)Nc1nc([C@H]2CCCN2C(=O)[C@H](O)[C@@H](O)C(=O)N[C@H](C)c2ccc(-n3cccn3)cc2)cs1 [Compound 2579] | < 20 nM
19 | C[C@@H](NC(=O)[C@H](O)[C@@H](O)C(=O)N1CCC[C@@H]1c1csc(N(C)S(C)(=O)=O)n1)c1ccc(-n2cccn2)cc1 [Compound 2582] | < 20 nM
20 | N#Cc1cc(F)ccc1N1CCC(CNC(=O)[C@H](O)[C@@H](O)C(=O)N2Cc3cccnc3C2)CC1 [Compound 2003] | 20 to 100 nM

Row | Structure (SMILES) | Ki
21 | C[C@@H](NC(=O)[C@](C)(O)[C@@H](O)C(=O)N1Cc2cccnc2C1)c1ccc(-n2cccn2)cc1 [Compound 2031] | < 20 nM
22 | C[C@H]1CN(c2ccccc2C#N)CCC1CNC(=O)[C@H](O)[C@@H](O)C(=O)N1Cc2ccccc2C1 (stereo partly shown) [Compound 2146] | 100 to 1000 nM
23 | C[C@@H](NC(=O)[C@H](O)[C@@H](O)C(=O)N1CCn2cnnc2C1)c1ccc(-n2cccn2)cc1 [Compound 2080] | 100 to 1000 nM
24 | O=C(NCC1CCN(c2ccc(F)cc2OCCC2CCCCC2)CC1)[C@H](O)[C@@H](O)C(=O)N1CCCC1 [Compound 2159] | 20 to 100 nM
25 | C[C@@H](NC(=O)[C@H](O)[C@@H](O)C(=O)N1C[C@H]2CNC[C@H]2C1)c1ccc(-n2cccn2)cc1 [Compound 2424] | 100 to 1000 nM
26 | C[C@@H](NC(=O)[C@H](O)[C@@H](O)C(=O)N1CCc2c(cnn2C)C1)c1ccc(-n2cccn2)cc1 [Compound 2074] | 20 to 100 nM
27 | C[C@@H](NC(=O)[C@H](O)[C@@H](O)C(=O)N1CCc2nc(N)ncc2C1)c1ccc(-n2cccn2)cc1 [Compound 2075] | 20 to 100 nM
28 | CNc1nc([C@H]2C[C@@H]3C[C@@H]3N2C(=O)[C@H](O)[C@@H](O)C(=O)N[C@H](C)c2ccc(-n3cccn3)cc2)cs1 [Compound 2246] | 20 to 100 nM
29 | O=C(NCc1ccc(-c2ccccc2OC(F)(F)F)cn1)[C@H](O)[C@@H](O)c1ccccn1 [Compound 2398] | > 1000 nM
30 | CC#CCOc1cc([C@@H](C)NC(=O)[C@](C)(O)[C@@H](O)C(=O)N2Cc3cccnc3C2)ccc1-n1cccn1 [Compound 2360] | < 20 nM
31 | Cc1nnc([C@H](O)[C@@H](O)C(=O)NCC2CCN(c3ccc(F)cc3C#N)CC2)n1C [Compound 2399] | > 1000 nM
32 | Cn1c(Br)cnc1[C@H](O)[C@@H](O)C(=O)NCC1CCN(c2ccc(F)cc2C#N)CC1 [Compound 2372] | > 1000 nM
33 | CC(c1cccc(Cl)c1)N(C)C(=O)[C@H](O)[C@@H](O)C(=O)N[C@H](C)c1ccc(-n2cccn2)cc1 (stereo partly shown) [Compound 2480] | 20 to 100 nM
34 | CCN(C(=O)[C@H](O)[C@@H](O)C(=O)N[C@H](C)c1ccc(-n2cccn2)cc1)C(C)c1cccc(Cl)c1 (stereo partly shown) [Compound 2481] | 100 to 1000 nM
35 | CNc1nc([C@H]2CCCN2C(=O)[C@H](O)[C@@H](O)C(=O)N[C@H](C)c2ccc(-n3cccn3)cc2)c(C)s1 [Compound 2268] | < 20 nM
36 | CC(C)Nc1nc([C@H]2c3ccccc3CCN2C(=O)[C@H](O)[C@@H](O)C(=O)N[C@H](C)c2ccc(-n3cccn3)cc2)cs1 [Compound 2588] | < 20 nM
37 | O=C(NCc1ccc(-c2ccccc2OCC2CCCC2)cc1)[C@H](O)[C@@H](O)C(=O)N1CCCC1 [Compound 2340] | 20 to 100 nM
38 | O=C(NCC1CCN(c2ccccc2OC(F)(F)F)CC1)[C@H](O)[C@@H](O)C(=O)N1Cc2ccncc2C1 [Compound 2040] | < 20 nM
39 | Cc1nc([C@H]2CCCN2C(=O)[C@H](O)[C@@H](O)C(=O)N[C@H](C)c2ccc(-n3cccn3)cc2)cs1 [Compound 2591] | < 20 nM
40 | C[C@@H](NC(=O)[C@](C)(O)[C@@H](O)C(=O)N1Cc2cccnc2C1)c1ccc(-n2cccn2)c(OCc2ccccc2)c1 [Compound 2357] | < 20 nM

Same assay, conditions: TACE, representative compounds, numeric values; read-out: Ki

Row | Structure (SMILES) | Ki
41 | Cc1cccc(C)c1Cc1csc(CNC(=O)[C@H](O)[C@@H](O)C(=O)N2CCCC2c2cccc(CN3CCCC3)c2)n1 (stereo partly shown) | 1.4 nM
42 | Cc1cccc(C)c1Cc1csc(CNC(=O)[C@H](O)[C@@H](O)C(=O)N2CCCC2c2cccc(N3CCN(C)CC3)c2)n1 (stereo partly shown) | 2.5 nM
43 | CNc1nc([C@H]2CCCN2C(=O)[C@H](O)[C@@H](O)C(=O)N[C@H](C)c2ccc(-n3cccn3)cc2)c(C#N)s1 [drawing 1316] | 2 nM
44 | CNc1nc([C@H]2c3ccccc3CN2C(=O)[C@H](O)[C@@H](O)C(=O)N[C@H](C)c2ccc(-n3cccn3)cc2)cs1 | 0.5 nM
45 | COc1cc2c(cc1OC)C(c1ccccc1)N(C(=O)[C@H](O)[C@@H](O)C(=O)N[C@H](C)c1ccc(-n3cccn3)cc1)CC2 (stereo partly shown) [drawing 1306] | 0.86 nM
46 | C[C@@H](NC(=O)[C@](C)(O)[C@@H](O)C(=O)N1CCCC1(C)c1cccc(Cl)c1)c1ccc(-n2cccn2)cc1 (stereo partly shown) [drawing 1303] | 0.75 nM
